Entries after “also recorded” stand apart in the source; their conditions may differ. Structures can show the parent of a compound that is named as a salt.

The subject of data set [1] is α4β2-nAChR from rat cerebral cortical membranes. The conditions noted are these: ref [39], [40]; cited from earlier work.
For data set [2] the following is noted: chronic and neuropathic pain; ref [45], [46]; cited from earlier work.
For a further data set, the target named is α1β1γδ-nAChR (Homo sapiens, UniProt P02708+P07510+Q07001). The experiment in a line: 86Rb+ efflux assay in TE671/RD cells. It is filed as cell-based.
For a further data set, the target named is human α4β2-nAChR (Homo sapiens, UniProt P17787+P43681). The data set is described as follows: 86Rb+ efflux assay in SH-EP1-hα4β2 cells. It is filed as cell-based. The note with it: efficacies similar to that of carbamylcholine.
In a further data set the target is α3β4*-nAChR (Homo sapiens, UniProt P30926+P32297). The experiment in a line: 86Rb+ efflux assay in SH-SY5Y cells. The note with it: efficacies similar to that of carbamylcholine. It is filed as cell-based.
Data set [3] has as its system immobility in the mouse forced swim test. The experiment in a line: Mouse forced swim test. It is filed as in vivo.
Data set [4] has as its system about 45 other CNS neurotransmitter receptors and transporters. The data set is described as follows: Broad-range screening. It is filed as binding. The conditions noted are these: 10 μM; about 45 receptors and transporters.
Another data set addresses T1, CYP1A2 (Homo sapiens, UniProt P05177).
T1 sequence (P05177 1-516): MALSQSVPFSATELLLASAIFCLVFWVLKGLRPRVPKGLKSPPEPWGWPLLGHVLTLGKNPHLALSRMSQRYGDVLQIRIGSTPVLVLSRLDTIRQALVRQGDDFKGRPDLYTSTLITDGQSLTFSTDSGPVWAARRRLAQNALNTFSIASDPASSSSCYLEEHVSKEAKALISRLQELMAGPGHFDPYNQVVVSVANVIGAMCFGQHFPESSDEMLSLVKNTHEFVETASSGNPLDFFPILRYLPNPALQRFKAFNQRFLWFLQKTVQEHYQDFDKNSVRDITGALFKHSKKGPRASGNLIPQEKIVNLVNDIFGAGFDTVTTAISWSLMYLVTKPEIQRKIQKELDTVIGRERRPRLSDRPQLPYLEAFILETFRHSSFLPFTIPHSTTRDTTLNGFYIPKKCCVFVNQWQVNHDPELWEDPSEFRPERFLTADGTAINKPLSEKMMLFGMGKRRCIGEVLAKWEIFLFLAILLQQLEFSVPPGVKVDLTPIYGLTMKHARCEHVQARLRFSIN
The experiment in a line: Multiple CYP inhibition assay in human liver microsomes, CYP1A2. It is filed as in vitro ADME.

The next data set addresses T2, CYP2B6 (Homo sapiens, UniProt P20813).
T2 sequence (P20813 1-491): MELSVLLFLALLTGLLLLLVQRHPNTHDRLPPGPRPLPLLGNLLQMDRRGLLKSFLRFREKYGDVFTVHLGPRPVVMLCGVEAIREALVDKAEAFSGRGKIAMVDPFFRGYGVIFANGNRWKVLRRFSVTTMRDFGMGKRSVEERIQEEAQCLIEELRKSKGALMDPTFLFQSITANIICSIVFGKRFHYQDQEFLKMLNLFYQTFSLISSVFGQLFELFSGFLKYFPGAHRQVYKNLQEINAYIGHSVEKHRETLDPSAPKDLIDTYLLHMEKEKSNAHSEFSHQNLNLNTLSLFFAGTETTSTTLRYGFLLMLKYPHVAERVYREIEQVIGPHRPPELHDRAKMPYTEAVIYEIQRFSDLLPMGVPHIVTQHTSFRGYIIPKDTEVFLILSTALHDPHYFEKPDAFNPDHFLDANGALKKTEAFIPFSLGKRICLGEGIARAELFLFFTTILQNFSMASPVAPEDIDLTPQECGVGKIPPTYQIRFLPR
The data set is described as follows: Multiple CYP inhibition assay in human liver microsomes, CYP2B6. It is filed as in vitro ADME. On the technique in general: Liver microsomes are vesicles of endoplasmic reticulum, rich in cytochrome P450 enzymes.

In the next data set the target is CYP2C9 (Homo sapiens, UniProt P11712). The experiment in a line: Multiple CYP inhibition assay in human liver microsomes, CYP2C9. It is filed as in vitro ADME.
The target in a further data set is CYP2C19 (Homo sapiens, UniProt P33261). The data set is described as follows: Multiple CYP inhibition assay in human liver microsomes, CYP2C19. It is filed as in vitro ADME.
Another data set has as its target CYP2D6 (Homo sapiens, UniProt P10635). The experiment in a line: Multiple CYP inhibition assay in human liver microsomes, CYP2D6. It is filed as in vitro ADME.
The next data set has as its target CYP3A4 (Homo sapiens, UniProt P08684). The data set is described as follows: Multiple CYP inhibition assay in human liver microsomes, CYP3A4. It is filed as in vitro ADME.

Sequence of α1β1γδ-nAChR (P02708 21-457): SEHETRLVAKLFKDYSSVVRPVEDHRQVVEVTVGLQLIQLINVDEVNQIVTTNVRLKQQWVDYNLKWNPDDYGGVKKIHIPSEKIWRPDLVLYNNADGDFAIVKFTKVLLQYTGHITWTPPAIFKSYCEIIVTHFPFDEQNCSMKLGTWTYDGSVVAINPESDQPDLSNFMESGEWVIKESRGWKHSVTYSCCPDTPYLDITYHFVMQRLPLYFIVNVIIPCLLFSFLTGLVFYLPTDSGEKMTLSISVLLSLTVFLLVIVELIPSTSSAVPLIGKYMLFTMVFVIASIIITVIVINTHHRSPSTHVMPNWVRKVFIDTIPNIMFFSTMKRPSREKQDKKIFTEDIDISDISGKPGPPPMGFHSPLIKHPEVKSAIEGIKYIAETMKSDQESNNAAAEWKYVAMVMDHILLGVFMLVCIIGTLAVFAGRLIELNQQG
Sequence of α1β1γδ-nAChR (P11230 24-501 partner): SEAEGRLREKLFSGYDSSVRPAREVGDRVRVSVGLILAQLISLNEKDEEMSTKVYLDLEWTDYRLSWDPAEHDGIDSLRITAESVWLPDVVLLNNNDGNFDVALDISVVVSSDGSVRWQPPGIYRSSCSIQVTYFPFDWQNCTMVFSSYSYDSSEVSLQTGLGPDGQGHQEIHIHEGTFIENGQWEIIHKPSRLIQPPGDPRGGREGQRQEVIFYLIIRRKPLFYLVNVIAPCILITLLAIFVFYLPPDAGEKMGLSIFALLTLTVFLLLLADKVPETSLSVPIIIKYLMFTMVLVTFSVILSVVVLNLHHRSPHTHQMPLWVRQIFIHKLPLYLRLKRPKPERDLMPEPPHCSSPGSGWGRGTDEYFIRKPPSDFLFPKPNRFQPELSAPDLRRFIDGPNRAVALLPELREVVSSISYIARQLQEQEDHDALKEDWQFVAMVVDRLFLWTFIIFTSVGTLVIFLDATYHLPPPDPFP
Sequence of α1β1γδ-nAChR (P07510 23-517): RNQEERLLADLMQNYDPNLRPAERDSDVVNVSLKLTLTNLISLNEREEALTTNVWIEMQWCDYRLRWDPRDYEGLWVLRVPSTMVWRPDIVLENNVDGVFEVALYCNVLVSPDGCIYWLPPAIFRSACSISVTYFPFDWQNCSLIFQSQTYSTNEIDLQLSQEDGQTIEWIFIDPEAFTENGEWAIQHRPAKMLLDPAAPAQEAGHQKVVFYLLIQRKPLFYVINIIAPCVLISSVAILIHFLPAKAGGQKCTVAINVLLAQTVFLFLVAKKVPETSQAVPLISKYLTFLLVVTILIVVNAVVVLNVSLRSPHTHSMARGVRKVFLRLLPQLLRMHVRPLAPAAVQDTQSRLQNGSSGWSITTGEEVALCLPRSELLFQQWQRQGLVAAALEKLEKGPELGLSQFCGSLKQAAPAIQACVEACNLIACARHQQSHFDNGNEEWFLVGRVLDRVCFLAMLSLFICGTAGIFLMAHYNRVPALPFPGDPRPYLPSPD
Sequence of α1β1γδ-nAChR (Q07001 22-517): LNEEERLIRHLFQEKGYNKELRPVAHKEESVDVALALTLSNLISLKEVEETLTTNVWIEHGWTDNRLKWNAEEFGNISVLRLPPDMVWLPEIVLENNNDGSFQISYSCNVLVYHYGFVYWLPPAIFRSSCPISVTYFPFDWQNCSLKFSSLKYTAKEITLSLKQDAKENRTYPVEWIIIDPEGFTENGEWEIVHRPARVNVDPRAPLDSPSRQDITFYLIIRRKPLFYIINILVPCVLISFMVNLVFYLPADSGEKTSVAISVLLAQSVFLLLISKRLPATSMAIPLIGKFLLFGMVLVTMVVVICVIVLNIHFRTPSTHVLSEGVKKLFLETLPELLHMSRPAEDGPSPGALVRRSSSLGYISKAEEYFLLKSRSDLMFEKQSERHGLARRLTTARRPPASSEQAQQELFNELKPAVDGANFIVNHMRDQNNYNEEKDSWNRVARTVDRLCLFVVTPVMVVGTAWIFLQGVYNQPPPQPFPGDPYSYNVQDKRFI
Sequence of CYP2C19 (P33261 whole entry): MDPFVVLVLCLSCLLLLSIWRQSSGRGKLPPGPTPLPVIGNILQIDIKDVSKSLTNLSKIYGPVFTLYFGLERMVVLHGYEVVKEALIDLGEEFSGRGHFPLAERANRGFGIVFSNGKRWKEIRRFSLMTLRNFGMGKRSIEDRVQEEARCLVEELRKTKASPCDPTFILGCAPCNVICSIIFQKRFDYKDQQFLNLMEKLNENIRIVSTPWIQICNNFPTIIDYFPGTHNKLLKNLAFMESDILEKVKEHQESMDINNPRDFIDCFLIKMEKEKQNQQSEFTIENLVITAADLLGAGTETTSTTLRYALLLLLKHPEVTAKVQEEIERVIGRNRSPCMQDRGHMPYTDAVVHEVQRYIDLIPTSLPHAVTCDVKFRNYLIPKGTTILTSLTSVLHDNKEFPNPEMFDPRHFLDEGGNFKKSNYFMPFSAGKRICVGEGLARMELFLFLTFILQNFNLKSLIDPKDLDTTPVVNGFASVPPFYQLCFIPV
Sequence of CYP3A4 (P08684 whole entry): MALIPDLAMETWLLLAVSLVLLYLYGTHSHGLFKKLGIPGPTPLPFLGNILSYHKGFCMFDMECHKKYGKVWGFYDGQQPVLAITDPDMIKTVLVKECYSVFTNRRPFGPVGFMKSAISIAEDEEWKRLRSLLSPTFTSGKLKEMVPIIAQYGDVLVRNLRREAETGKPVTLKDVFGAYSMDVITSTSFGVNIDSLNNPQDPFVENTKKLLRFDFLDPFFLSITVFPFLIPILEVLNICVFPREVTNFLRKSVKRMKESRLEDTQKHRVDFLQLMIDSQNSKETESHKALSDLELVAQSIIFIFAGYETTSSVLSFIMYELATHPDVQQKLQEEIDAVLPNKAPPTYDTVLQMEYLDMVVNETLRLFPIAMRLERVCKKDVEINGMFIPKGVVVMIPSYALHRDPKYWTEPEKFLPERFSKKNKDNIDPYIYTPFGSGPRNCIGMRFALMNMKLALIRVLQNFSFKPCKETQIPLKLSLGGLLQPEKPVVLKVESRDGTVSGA
Sequence of CYP2D6 (P10635 whole entry): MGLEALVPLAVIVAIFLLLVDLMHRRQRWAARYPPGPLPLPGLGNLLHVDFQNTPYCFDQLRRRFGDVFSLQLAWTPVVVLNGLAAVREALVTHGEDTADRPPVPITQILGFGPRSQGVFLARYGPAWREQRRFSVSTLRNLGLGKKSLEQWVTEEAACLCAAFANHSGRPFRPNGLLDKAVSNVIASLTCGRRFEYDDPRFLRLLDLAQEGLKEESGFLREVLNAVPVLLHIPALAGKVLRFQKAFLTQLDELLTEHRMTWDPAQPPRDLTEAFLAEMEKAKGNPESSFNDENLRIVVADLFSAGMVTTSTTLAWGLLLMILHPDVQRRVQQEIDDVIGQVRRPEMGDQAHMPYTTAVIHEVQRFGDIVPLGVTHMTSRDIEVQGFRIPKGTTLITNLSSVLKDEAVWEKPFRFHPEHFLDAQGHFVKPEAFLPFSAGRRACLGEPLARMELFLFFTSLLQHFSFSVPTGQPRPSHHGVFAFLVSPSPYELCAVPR
Sequence of α3β4*-nAChR (P32297 32-505): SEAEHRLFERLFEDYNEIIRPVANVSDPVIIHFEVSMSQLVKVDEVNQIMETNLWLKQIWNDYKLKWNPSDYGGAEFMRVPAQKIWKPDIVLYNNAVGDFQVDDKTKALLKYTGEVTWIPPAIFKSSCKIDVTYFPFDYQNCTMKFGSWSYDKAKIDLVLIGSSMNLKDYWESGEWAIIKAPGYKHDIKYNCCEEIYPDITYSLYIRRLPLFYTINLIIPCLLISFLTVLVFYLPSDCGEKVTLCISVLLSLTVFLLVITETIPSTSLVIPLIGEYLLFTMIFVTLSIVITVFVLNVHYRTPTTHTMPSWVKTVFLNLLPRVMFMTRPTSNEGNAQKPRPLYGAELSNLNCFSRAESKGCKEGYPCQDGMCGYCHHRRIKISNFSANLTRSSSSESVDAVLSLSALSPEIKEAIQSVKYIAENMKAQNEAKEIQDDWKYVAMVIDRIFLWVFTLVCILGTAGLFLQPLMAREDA
Sequence of α3β4*-nAChR (P30926 22-498): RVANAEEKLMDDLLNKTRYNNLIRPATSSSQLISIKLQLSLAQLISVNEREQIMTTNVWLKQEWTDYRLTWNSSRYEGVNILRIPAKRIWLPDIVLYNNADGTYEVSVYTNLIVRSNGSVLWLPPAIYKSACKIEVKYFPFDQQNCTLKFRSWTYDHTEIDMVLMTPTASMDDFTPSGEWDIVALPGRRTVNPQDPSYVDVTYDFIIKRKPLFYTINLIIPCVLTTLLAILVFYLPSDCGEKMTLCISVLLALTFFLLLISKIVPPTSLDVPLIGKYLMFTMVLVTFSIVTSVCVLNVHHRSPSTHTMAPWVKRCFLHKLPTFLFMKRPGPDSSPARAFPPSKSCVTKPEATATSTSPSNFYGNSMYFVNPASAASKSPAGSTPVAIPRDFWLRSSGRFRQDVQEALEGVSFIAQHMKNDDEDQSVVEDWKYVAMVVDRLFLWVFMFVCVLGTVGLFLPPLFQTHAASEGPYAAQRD
Sequence of CYP2C9 (P11712 whole entry): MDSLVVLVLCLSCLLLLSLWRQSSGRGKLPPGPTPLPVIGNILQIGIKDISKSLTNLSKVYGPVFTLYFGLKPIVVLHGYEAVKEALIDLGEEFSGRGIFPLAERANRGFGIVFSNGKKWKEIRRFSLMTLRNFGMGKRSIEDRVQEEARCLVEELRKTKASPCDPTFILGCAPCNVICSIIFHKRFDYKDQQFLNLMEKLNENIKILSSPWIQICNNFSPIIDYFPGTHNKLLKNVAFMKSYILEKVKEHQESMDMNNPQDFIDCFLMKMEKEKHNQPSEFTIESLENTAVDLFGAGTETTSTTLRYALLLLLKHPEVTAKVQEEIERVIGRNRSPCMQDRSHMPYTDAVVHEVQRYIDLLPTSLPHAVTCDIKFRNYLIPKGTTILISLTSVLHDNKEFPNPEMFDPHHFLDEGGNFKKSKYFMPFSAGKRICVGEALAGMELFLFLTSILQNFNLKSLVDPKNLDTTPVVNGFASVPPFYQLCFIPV

`Cc1cc([C@H]2C[C@@H]3CC[C@H]2N3)on1` [Compound 7, epiboxidine]: in data set [1], the “Fold less potent than compound 4 in the displacement of [3H]nicotine” value is “approximately 10 fold” and the “Fold more potent than compound 6 in the displacement of [3H]nicotine” value was 17 fold.

With `Clc1ccc(OC[C@H]2CCN2)cn1` [Compound 10], in data set [2], the “Potency relative to morphine” value is 50 times.

For `FCc1cc(OC[C@@H]2CCN2)on1` [Compound 39, 5-[(2(S)-Azetidinyl)methoxy]-3-(fluoromethyl)isoxazole Trifluoroacetate], the “Activity at the α1β1γδ-nAChR” value on α1β1γδ-nAChR was “little activity; also recorded: inactive”.

As to `Cc1cc(OC[C@@H]2CCN2)on1` [Compound 43, 5-[(2(S)-Azetidinyl)methoxy]-3-methylisoxazole], the “Agonist activity at α4β2-nAChRs” value on human α4β2-nAChR is “full agonist activity”. On α3β4*-nAChR, the “Agonist activity at α3β4*-nAChRs” value is “full agonist activity”. The “Activity at the α1β1γδ-nAChR” value on α1β1γδ-nAChR was “little activity; also recorded: inactive”. Further, the “Immobility in the forced swim test” value in [3] (1 mg/kg ip, 30 min before test, 6 min trial, vs vehicle) is “reduced immobility”; in data set [3] (1 mg/kg orally, 30 min before test, 6 min trial), “inactive”; in [3] (5 mg/kg ip, 30 min before test, 6 min trial, vs vehicle), “reduced immobility”. Further, in data set [4], the “Inhibition in the preliminary binding screen” value is reported as ≤ 50%. In addition, the “CYP1A2 activity, % of the control” value at CYP1A2 is recorded as ≥ 70%. Moreover, the “CYP2B6 activity, % of the control” value at CYP2B6 is on record as ≥ 70%. Moreover, the “CYP2C9 activity, % of the control” value at CYP2C9 was ≥ 70%. The “CYP2C19 activity, % of the control” value at CYP2C19 is reported as ≥ 70%. In addition, the “CYP2D6 activity, % of the control” value on CYP2D6 was ≥ 70%. Moreover, the “CYP3A4 activity, % of the control” value at CYP3A4 is recorded as ≥ 70%.

As for `CN[C@H]1CC[C@@H](c2ccc(Cl)c(Cl)c2)c2ccccc21` [sertraline, reference compound], the “Immobility in the forced swim test” value in data set [3] (positive control, 10 mg/kg (10 or 20 mg/kg in method), ip or orally) is “expected decrease in immobility”.

These data come from publication PMC3272775 (Journal of Medicinal Chemistry, 2012).
